The values that follow come from US20240409662A1, “ANTIBODY MASKS AND USES THEREOF” (Vibrant Pharma Limited, priority 2021, published 2024).

Where two headings read alike, the source gives them in different places. No end group written: not given here.

The test system of experiment [1] is SP34. The experiment is described as follows: Masking capability of potential masks of SP34 (ELISA, BLI). It is filed as binding. Particulars: mask and linker fused to SP34 VH and/or VL. How it is done:
(§1) Binding of the 19 M-TCEs to both their antigens CEACAM5 and CD3δε was assessed with BLI using ForteBio Red96 as described above.
On the technique in general: ELISA stands for enzyme-linked immunosorbent assay.

Experiment [2] concerns the target T1, CD3δε (Homo sapiens, UniProt P07766). The experiment is described as follows: BLI binding of M-TCEs (captured on AHC sensors) to CD3δε. The arrangement: purchased ACRO (Beijing, China). As for the experimental part: (§2) Bio-Layer Interferometry (BLI) technique was employed for the measurement of protein-protein interactions in this study. A Octet Red96 system and Streptavidin (SA) or AHC biosensors (ForteBio, Fremont) were utilized.
(§3) Measurement of bindings between CD3ε1-27 mutants-SP34 fusion, or M-TCE, and […] was conducted as described above but with AHC sensors to capture M-TCE, and […] was used as the analyte.
as §1
In general terms: BLI is a label-free optical method that tracks binding on a fibre tip over time.

For a further experiment, the system named is HT29 cells. The experiment in a line: PBMC co-cultivation assay, M-TCE-induced killing of HT29 cells. It is filed as cell-based, human. Particulars: for EC50: HT29 + human PBMC, 72 hours, read-out: Efficacy (EC50); for tumor cell killing efficacy: digested vs undigested, in words; for Digested vs. masked: ratio of EC50 non-digested to MMP9-digested. As for the experimental part:
Five digested and undigested M-TCEs were tested for their tumor cell killing capability in the presence of human PBMC.
A total of 5×10^3 cells in RPMI1640 medium (supplemented with 10% FBS and 2 mM glutamine) of the target cell line (HT29) were seeded in 96-well plates (Day 0). A dilution series of respective antibodies was performed in assay media and added to target cells. On Day 0, a total of 5×10^4 PBMCs were added to each well, and the final reaction volume was adjusted to 200 μl. Percentage viability of target cell was measured by […]. LDH was measured after 72 hours using the Cell Counting Kit-8 (CK04, Dojindo, Japan) according to the manufacturer's recommendations. The results were analyzed as mean and standard deviation (SD) from triplicate wells and plotted as 4-parameter non-linear regression fittings using GraphPad Prism 9 software (GraphPad Software, San Diego, CA, USA).

For another experiment, the target named is T2, MMP9 (Homo sapiens, UniProt P14780).
T2 construct: purchased Acrobiosystems
The experiment is described as follows: Removal of masks by MMP9 digestion, SDS-PAGE. It is filed as biochemical. The following applies: 100 nM activated MMP9, 37° C., 3 hr. How it is done:
MMP9 proenzyme (proMMP9), purchased from Acrobiosystems, was dissolved to 100 μg/mL in MMP9 digestion buffer (50 mM Tris, 10 mM CaCl2), 150 mM NaCl, pH 7.6). 4-aminophenylmercuric acetate (APMA) was added to a final concentration of 1 mM. The proMMP9-APMA mixture was incubated at 37° C. for 24 hr to activate proMMP9.
The selected M-TCEs, after adjusting to MMP9 digestion buffer, was mixed with activated MMP9 to a final concentration of 100 nM. The samples were further incubated at 37° C. for 3 hr to allow M-TCEs to be digested by MMP9.
The M-TCEs with 14 AA, 16 AA and 18 AA linker could be completely or nearly completely digested, as only the faster migrating bands could be seen. […] Too short linker would make the removal of the masks difficult, probably because the employed enzyme, MMP9 in this case, could not fully engage with its digestion site in the M-TCEs.

Experiment [3] concerns SP34. The experiment is described as follows: BLI binding of SP34 to CD3ε1-27 mutant fusion proteins. The following applies: FIG. 2B. As for the experimental part:
as §3
In some embodiment, binding of SP34 to the second batch of 42 variants of […] mutant fusion proteins were tested by BLI with a ForteBio Red96 as described above.

Experiment [4] deals with T3, CD3 on human PBMC (human, UniProt P07766 23-207). The experiment is described as follows: cell-based or functional assay.
Experiment [5] addresses T3, CD3 on human PBMC. The experiment is described as follows: cell-based or functional assay. This is another data set of the same source.
Experiment [6] has as its target T1, CD3δε. The experiment is described as follows: BLI affinity of SP34 (immobilized on AHC biosensor) to CD3δε as analyte. The arrangement: purchased ACRO (Beijing, China). Type of experiment: binding. How it is done: as §2
CD3δε was purchased from ACRO (Beijing, China) and used as the antigen for SP34 affinity measurement.
SP34 was immobilized on the AHC biosensor and its affinity to CD3δε was measured using the latter as the analyte. This approach was selected as it can avoid potential multivalent binding and give accurate affinity between SP34 and CD3δε.

T2 sequence (P14780 107-707 limits assumed): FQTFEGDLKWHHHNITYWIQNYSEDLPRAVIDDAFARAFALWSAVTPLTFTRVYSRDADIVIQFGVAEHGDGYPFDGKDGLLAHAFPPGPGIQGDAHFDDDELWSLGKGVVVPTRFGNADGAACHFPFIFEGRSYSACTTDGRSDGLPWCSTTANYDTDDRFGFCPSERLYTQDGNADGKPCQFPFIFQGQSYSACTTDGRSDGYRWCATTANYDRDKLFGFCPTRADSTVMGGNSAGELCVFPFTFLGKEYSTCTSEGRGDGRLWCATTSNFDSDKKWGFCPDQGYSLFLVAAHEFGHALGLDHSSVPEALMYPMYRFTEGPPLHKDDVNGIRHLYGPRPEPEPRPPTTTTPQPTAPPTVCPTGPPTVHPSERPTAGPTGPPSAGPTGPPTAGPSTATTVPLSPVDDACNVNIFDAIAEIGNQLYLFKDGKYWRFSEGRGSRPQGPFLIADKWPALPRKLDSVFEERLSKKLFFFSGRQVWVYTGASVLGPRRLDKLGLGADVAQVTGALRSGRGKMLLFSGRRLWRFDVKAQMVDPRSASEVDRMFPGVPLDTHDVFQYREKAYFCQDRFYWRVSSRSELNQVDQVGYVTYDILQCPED
T1 sequence (P07766 22-126 limits assumed): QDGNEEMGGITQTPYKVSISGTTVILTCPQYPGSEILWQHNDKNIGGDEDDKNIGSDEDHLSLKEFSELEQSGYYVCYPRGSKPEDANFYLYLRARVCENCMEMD
T1 sequence (P04234 22-105 partner limits assumed): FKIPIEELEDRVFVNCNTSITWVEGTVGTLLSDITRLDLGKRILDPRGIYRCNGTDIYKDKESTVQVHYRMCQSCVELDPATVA
T3 sequence (P07766 23-207): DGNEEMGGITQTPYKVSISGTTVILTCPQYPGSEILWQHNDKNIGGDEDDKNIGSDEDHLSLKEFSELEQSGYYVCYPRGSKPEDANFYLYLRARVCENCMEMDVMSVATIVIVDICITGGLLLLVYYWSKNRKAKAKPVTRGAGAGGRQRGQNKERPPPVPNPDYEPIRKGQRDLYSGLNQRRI

As for “L4-G3A: M-TCE; QDANEEGSGSPLGLGSGS-SP34VH, SEQ ID NO 39”, the “Masking Capability” value in the experiment on SP34 [1] is listed as “Yes”. Besides, the “binding to CD3δε” value with CD3δε [2] (after MMP9 digestion) is given as “largely restored the binding”. Besides, the EC50 with HT29 cells (MMP9-digested) came out at 0.012 nM; in the experiment on HT29 cells (Non-digested), 1.72 nM. Moreover, the “efficacy lower before mask removal” value in the experiment with HT29 cells (before vs after MMP9 digestion) is given as ~140 fold. Further, the “tumor cell killing efficacy” value in the experiment with HT29 cells was “could induce tumor cell killing both before and after MMP9 digestion”. Also, in the experiment on HT29 cells, the Digested vs. masked amounted to 144×. Besides, the “EC50 of MMP9-digested M-TCE relative to unmasked TCE” value in the experiment on HT29 cells (vs SP34-CEA) is “approximately 10 fold”. In addition, in the experiment with MMP9, the “digestion by MMP9” value was “partially digested”.
“L2-G3R: M-TCE; QDRNEEGSPLGLGS-SP34VH, SEQ ID NO 43”: in the experiment on SP34 [1], the “Masking Capability” value is reported as “Yes”. In addition, the “binding to CD3δε” value with CD3δε [2] (non-digested (masked), compared with non-masked TCE) is given as “lack of masking capability”. The “digestion by MMP9” value with MMP9 is listed as “could not be digested”.
With “L4-D2E: M-TCE; QEGNEEGSGSPLGLGSGS-SP34VH, SEQ ID NO 27”, in the experiment with SP34 [1], the “Masking Capability” value is on record as “Yes”. The EC50 in the experiment with HT29 cells (MMP9-digested) stood at 0.011 nM. The EC50 in the experiment on HT29 cells (Non-digested) is 0.65 nM. In the experiment with HT29 cells, the “tumor cell killing efficacy” value was “higher efficacy in inducing tumor cell killing than their undigested counterparts” and the Digested vs. masked amounted to 59×. Moreover, in the experiment with MMP9, the “digestion by MMP9” value is given as “partially digested”.
Regarding “Q1C: Q1C mutant of the CD3ε1-27-Fc fusion protein”, the “binding of SP34 to fusion protein” value with SP34 [3] is reported as “maintained binding”.
Same read-out and setting: next, “G3R: G3R mutant of the CD3ε1-27-Fc fusion protein”: “maintained binding”.

B1: MMP9-digested L4-G3A (bispecific antibody, not shown: small tags and cut ends)
heavy: EVKLLESGGGLVQPKGSLKLSCAASGFTFNTYAMNWVRQAPGKGLEWVARIRSKYNNYATYYADSVKDRFTISRDDSQSILYLQMNNLKTEDTAMYYCVRHGNFGNSYVSWFAYWGQGTLVTVSS
light: QAVVTQESALTTSPGETVTLTCRSSTGAVTTSNYANWVQEKPDHLFTGLIGGTNKRAPGVPARFSGSLIGDKAALTITGAQTEDEAIYFCALWYSNLWVFGGGTKVEIK
chain: EVQLVESGGGFVQAGESLTLSCTSSTLTFTPYRMAWYRQAPGKQRDLVADISSGDGRTTNYADFAKGRFTISRDNIKNTVFLRMTNLKPEDTAVYYCNTFVSFVGIARSWGQGTQVTVSSESKYGPPCPPCPAPEAAGGPSVFLFPPKPKDTLMISRTPEVTCVVVDVSQEDPEVQFNWYVDGVEVHNAKTKPREEQFNSTYRVVSVLTVLHQDWLNGKEYKCKVSNKGLPSSIEKTISKAKGQPREPQVCTLPPSQEEMTKNQVSLSCAVKGFYPSDIAVEWESNGQPENNYKTTPPVLDSDGSFFLVSRLTVDKSRWQEGNVFSCSVMHEALHNRFTQKSLSLSL
Consider B1, for which the “killing EC50 of MMP9-digested M-TCE against that of unmasked TCE SP34-CEA” value with CD3 on human PBMC [4] was ~10 fold. Also, the “EC50 of M-TCE-induced killing of HT29 cells in the presence of human PBMC” value with CD3 on human PBMC [5] amounted to 0.012 nM.

B2: SP34: anti-CD3 antibody; VH and VL (SEQ ID NOs 1, 2) fused to human IgG1 constant regions, chimeric antibody (antibody, V domains shown)
VH: EVKLLESGGGLVQPKGSLKLSCAASGFTFNTYAMNWVRQAPGKGLEWVARIRSKYNNYATYYADSVKDRFTISRDDSQSILYLQMNNLKTEDTAMYYCVRHGNFGNSYVSWFAYWGQGTLVTVSS
VL: QAVVTQESALTTSPGETVTLTCRSSTGAVTTSNYANWVQEKPDHLFTGLIGGTNKRAPGVPARFSGSLIGDKAALTITGAQTEDEAIYFCALWYSNLWVFGGGTKVEIK
modifications: human IgG1 constant regions; VH of anti-CD3 antibody SP34; VL of anti-CD3 antibody SP34
For the molecule B2, the ka with CD3δε [6] (SP34 immobilized, CD3δε 9.4-150 nM as analyte) came out at 550000 M⁻¹ s⁻¹. Besides, the kd in the experiment with CD3δε [6] (SP34 immobilized, CD3δε as analyte) was determined as 0.0032 s⁻¹. The molecule also displayed a Kd with CD3δε [6] (monovalent binding of SP34 to CD3δε) of 5.8 nM.

Broadly, the EC50 is the concentration at which the effect is half-maximal. A word on the Kd: it is the equilibrium constant for the complex coming apart. High values mean lower affinity, low ones higher affinity.
